Data published in the supplement of paper PMC4862054.

How the values were obtained:
Assay in all cases: normalised response (% of control), CellTiter-Glo; higher = more viable cells (100 = DMSO, 0 = benzethonium chloride kill control)
Conditions in all cases: incubation time: 72 h
MDA-MB-453 = test system: MDA-MB-453
Method in brief: (§1)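 The table gives the normalised signal for a single concentration in each entry. Breast cancer cell lines were seeded (20 µl suspension) into 384-well plates holding compound at 5 concentrations in 10-fold steps over a compound-specific 10,000-fold range and incubated 72 h, then read for CellTox Green fluorescence (485/520 nm) and CellTiter-Glo luminescence. Normalisation on each plate used 0.1 % DMSO (100) and a positive kill control (0).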

MDA-MB-436 = test system: MDA-MB-436
Method in brief: as §1

DU-4475 = test system: DU-4475
Method in brief: as §1

BT-474 = test system: BT-474
Method in brief: as §1

MDA-MB-231 = test system: MDA-MB-231
Method in brief: as §1

CAL-85-1 = test system: CAL-85-1
Method in brief: as §1

MFM-223 = test system: MFM-223
Method in brief: as §1

CAL-51 = test system: CAL-51
Method in brief: as §1

CAL-120 = test system: CAL-120
Method in brief: as §1

HCC1599 = test system: HCC1599
Method in brief: as §1

HCC1937 = test system: HCC1937
Method in brief: as §1

SK-BR-3 = test system: SK-BR-3
Method in brief: as §1

HCC1143 = test system: HCC1143
Method in brief: as §1

Hs578T = test system: Hs578T
Method in brief: as §1

HDQ-P1 = test system: HDQ-P1
Method in brief: as §1

BT-549 = test system: BT-549
Method in brief: as §1

MDA-MB-468 = test system: MDA-MB-468
Method in brief: as §1

`COc1cccc2cc(-c3nc([C@H]4CC[C@H](C(=O)O)CC4)n4ncnc(N)c34)[nH]c12` [OSI-027] (1000 nM) gave a normalised response (MDA-MB-453) of 71.2%, a normalised response (MDA-MB-436) of 80.2% and a normalised response (DU-4475) of 89.3%. For the same molecule, the normalised response (BT-474) was 79.6%, the normalised response (MDA-MB-231) was 85.5% and the normalised response (CAL-85-1) was 76.2%. For the same molecule, the normalised response (MFM-223) was 72.5%, the normalised response (CAL-51) was 92.4% and the normalised response (CAL-120) was 77.3%. For the same molecule, the normalised response (HCC1599) was 118%, the normalised response (HCC1937) was 81.2% and the normalised response (SK-BR-3) was 48.2%. The normalised response (HCC1143) was 90.8%, the normalised response (Hs578T) was 96.6% and the normalised response (HDQ-P1) was 66.1%. For the same molecule, the normalised response (BT-549) was 74.6% and the normalised response (MDA-MB-468) was 84.2%.

`OC[C@H]1O[C@@H](n2cnc3c2N=CNC[C@H]3O)C[C@@H]1O` [Pentostatin] (1000 nM) was tested, and the normalised response (MDA-MB-453) was 97.8%, the normalised response (MDA-MB-436) was 102% and the normalised response (DU-4475) was 98%. The normalised response (BT-474) was 93.9%, the normalised response (MDA-MB-231) was 108% and the normalised response (CAL-85-1) was 100%. It also gave a normalised response (MFM-223) of 103%, a normalised response (CAL-51) of 92.4% and a normalised response (CAL-120) of 95.6%. It also gave a normalised response (HCC1599) of 103%, a normalised response (HCC1937) of 100% and a normalised response (SK-BR-3) of 104%. For the same molecule, the normalised response (HCC1143) was 104%, the normalised response (Hs578T) was 105% and the normalised response (HDQ-P1) was 94.1%. It also gave a normalised response (BT-549) of 95.7% and a normalised response (MDA-MB-468) of 99.4%.

In the case of `N#CC[C@H](C1CCCC1)n1cc(-c2ncnc3[nH]ccc23)cn1` [Ruxolitinib] (1000 nM), the normalised response (MDA-MB-453) is reported as 84.3%, the normalised response (MDA-MB-436) is reported as 101% and the normalised response (DU-4475) is reported as 99.6%. The normalised response (BT-474) was 90.2%, the normalised response (MDA-MB-231) was 104% and the normalised response (CAL-85-1) was 95.8%. It also gave a normalised response (MFM-223) of 91%, a normalised response (CAL-51) of 121% and a normalised response (CAL-120) of 89.4%. For the same molecule, the normalised response (HCC1599) was 100%, the normalised response (HCC1937) was 103% and the normalised response (SK-BR-3) was 90.2%. For the same molecule, the normalised response (HCC1143) was 92.9%, the normalised response (Hs578T) was 105% and the normalised response (HDQ-P1) was 98.2%. It also gave a normalised response (BT-549) of 96.3% and a normalised response (MDA-MB-468) of 90.8%.

With `C=CC[C@@H]1/C=C(\C)C[C@H](C)C[C@H](OC)[C@H]2O[C@@](O)(C(=O)C(=O)N3CCCC[C@H]3C(=O)O[C@H](/C(C)=C/[C@@H]3CC[C@@H](O)[C@H](OC)C3)[C@H](C)[C@@H](O)CC1=O)[C@H](C)C[C@@H]2OC` [Tacrolimus] (1000 nM) the normalised response (MDA-MB-453) was 108%, the normalised response (MDA-MB-436) was 99.7% and the normalised response (DU-4475) was 100%. For the same molecule, the normalised response (BT-474) was 97.4%, the normalised response (MDA-MB-231) was 106% and the normalised response (CAL-85-1) was 95.1%. It also gave a normalised response (MFM-223) of 101%, a normalised response (CAL-51) of 109% and a normalised response (CAL-120) of 101%. It also gave a normalised response (HCC1599) of 121%, a normalised response (HCC1937) of 101% and a normalised response (SK-BR-3) of 88.5%. It also gave a normalised response (HCC1143) of 98.4%, a normalised response (Hs578T) of 96% and a normalised response (HDQ-P1) of 105%. For the same molecule, the normalised response (BT-549) was 102% and the normalised response (MDA-MB-468) was 105%.

Molecule `C=CCNC1=C2C[C@@H](C)C[C@H](OC)[C@H](O)[C@@H](C)/C=C(\C)[C@H](OC(N)=O)[C@@H](OC)/C=C\C=C(/C)C(=O)NC(=CC1=O)C2=O` [Tanespimycin] (1000 nM) has a normalised response (MDA-MB-453) of 28.9%, a normalised response (MDA-MB-436) of 43.3% and a normalised response (DU-4475) of 0.04%. It also gave a normalised response (BT-474) of 21.1%, a normalised response (MDA-MB-231) of 23.5% and a normalised response (CAL-85-1) of 27.9%. The normalised response (MFM-223) was 39.2%, the normalised response (CAL-51) was 26% and the normalised response (CAL-120) was 51.8%. The normalised response (HCC1599) was 57.8%, the normalised response (HCC1937) was 29% and the normalised response (SK-BR-3) was 38.5%. The normalised response (HCC1143) was 36%, the normalised response (Hs578T) was 38.2% and the normalised response (HDQ-P1) was 22.8%. It also gave a normalised response (BT-549) of 33.4% and a normalised response (MDA-MB-468) of 42.3%.

`C[C@]1(c2nc3c(C(N)=O)cccc3[nH]2)CCCN1` [Veliparib] (1000 nM) showed a normalised response (MDA-MB-453) of 109%, a normalised response (MDA-MB-436) of 95.4% and a normalised response (DU-4475) of 98.6%. The normalised response (BT-474) was 93.8%, the normalised response (MDA-MB-231) was 103% and the normalised response (CAL-85-1) was 115%. It also gave a normalised response (MFM-223) of 107%, a normalised response (CAL-51) of 72.6% and a normalised response (CAL-120) of 97%. The normalised response (HCC1599) was 104%, the normalised response (HCC1937) was 101% and the normalised response (SK-BR-3) was 101%. For the same molecule, the normalised response (HCC1143) was 105%, the normalised response (Hs578T) was 105% and the normalised response (HDQ-P1) was 102%. It also gave a normalised response (BT-549) of 103% and a normalised response (MDA-MB-468) of 104%.

`CC[C@]1(O)C[C@@H]2CN(CCc3c([nH]c4ccccc34)[C@@](C(=O)OC)(c3cc4c(cc3OC)N(C)[C@H]3[C@@](O)(C(=O)OC)[C@H](OC(C)=O)[C@]5(CC)C=CCN6CC[C@]43[C@@H]65)C2)C1` [Vinblastine] (100 nM) was tested, and the normalised response (MDA-MB-453) was 57.5%, the normalised response (MDA-MB-436) was 25.3% and the normalised response (DU-4475) was 61.9%. It also gave a normalised response (BT-474) of 52.3%, a normalised response (MDA-MB-231) of 40.1% and a normalised response (CAL-85-1) of 37.2%. For the same molecule, the normalised response (MFM-223) was 44.1%, the normalised response (CAL-51) was 31.6% and the normalised response (CAL-120) was 62.9%. The normalised response (HCC1599) was 26.6%, the normalised response (HCC1937) was 67.7% and the normalised response (SK-BR-3) was 14.2%. For the same molecule, the normalised response (HCC1143) was 56.6%, the normalised response (Hs578T) was 22.4% and the normalised response (HDQ-P1) was 71.9%. For the same molecule, the normalised response (BT-549) was 35.6% and the normalised response (MDA-MB-468) was 34.7%.

In the case of `CS(=O)(=O)c1ccc(C(=O)Nc2ccc(Cl)c(-c3ccccn3)c2)c(Cl)c1` [Vismodegib] (1000 nM), the normalised response (MDA-MB-453) is reported as 89.6%, the normalised response (MDA-MB-436) is reported as 93.3% and the normalised response (DU-4475) is reported as 98.9%. For the same molecule, the normalised response (BT-474) was 90.3%, the normalised response (MDA-MB-231) was 95.9% and the normalised response (CAL-85-1) was 103%. The normalised response (MFM-223) was 95.2%, the normalised response (CAL-51) was 105% and the normalised response (CAL-120) was 90.9%. The normalised response (HCC1599) was 118%, the normalised response (HCC1937) was 95.5% and the normalised response (SK-BR-3) was 86.5%. It also gave a normalised response (HCC1143) of 89.2%, a normalised response (Hs578T) of 101% and a normalised response (HDQ-P1) of 98.4%. The normalised response (BT-549) was 101% and the normalised response (MDA-MB-468) was 94.9%.
